≈ marks a conversion by molar mass, not a printed value. Calls of active or inactive are those of the source. The calls are words filed in the database; no cut-off is given here.
Tests used:
[1] = target: T1, 3-oxoacyl-[acyl-carrier-protein] synthase 2 (Mycobacterium tuberculosis) (UniProt P9WQD7); assay: Inhibitory activity against KasB from Mycobacterium tuberculosis H37Rv at 100 uM
T1 sequence (whole entry): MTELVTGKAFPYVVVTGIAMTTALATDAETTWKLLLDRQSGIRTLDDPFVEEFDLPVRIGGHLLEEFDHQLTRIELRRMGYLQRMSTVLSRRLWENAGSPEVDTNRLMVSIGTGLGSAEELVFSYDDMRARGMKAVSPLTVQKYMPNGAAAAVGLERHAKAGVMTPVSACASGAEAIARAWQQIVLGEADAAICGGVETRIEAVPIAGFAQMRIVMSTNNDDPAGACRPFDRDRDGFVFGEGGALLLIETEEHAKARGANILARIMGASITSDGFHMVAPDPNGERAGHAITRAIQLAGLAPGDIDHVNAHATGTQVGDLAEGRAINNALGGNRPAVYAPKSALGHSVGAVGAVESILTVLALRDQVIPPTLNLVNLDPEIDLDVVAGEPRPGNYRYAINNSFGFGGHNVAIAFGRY

Escherichia coli = assay: Inhibitory activity against Escherichia coli ANSI; assay type: functional
[2] = target: T2, 3-oxoacyl-[acyl-carrier-protein] synthase 1 (Mycobacterium tuberculosis) (UniProt P9WQD9); assay: Inhibitory activity against KasA from Mycobacterium tuberculosis H37Rv at 100 uM
T2 sequence (whole entry): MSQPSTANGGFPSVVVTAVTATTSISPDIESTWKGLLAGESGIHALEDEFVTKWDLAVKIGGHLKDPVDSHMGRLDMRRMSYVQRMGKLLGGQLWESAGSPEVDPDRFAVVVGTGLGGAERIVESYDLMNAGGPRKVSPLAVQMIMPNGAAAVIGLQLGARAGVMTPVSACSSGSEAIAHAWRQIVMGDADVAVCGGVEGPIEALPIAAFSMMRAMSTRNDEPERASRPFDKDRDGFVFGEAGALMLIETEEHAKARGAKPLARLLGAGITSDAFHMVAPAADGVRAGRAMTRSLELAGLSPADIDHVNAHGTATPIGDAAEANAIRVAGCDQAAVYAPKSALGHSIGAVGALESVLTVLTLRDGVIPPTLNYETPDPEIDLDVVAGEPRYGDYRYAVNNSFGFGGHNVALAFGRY

[3] = tested on: Mycobacterium tuberculosis; assay: Inhibitory activity against Mycobacterium tuberculosis H37Rv; assay type: functional
Fatty acid synthase [4] = target: T3, Fatty acid synthase (Homo sapiens, UniProt P49327); assay: Inhibitory activity against human FAS1 at 100 uM
Target sequence in this assay (P49327 whole entry, looked up): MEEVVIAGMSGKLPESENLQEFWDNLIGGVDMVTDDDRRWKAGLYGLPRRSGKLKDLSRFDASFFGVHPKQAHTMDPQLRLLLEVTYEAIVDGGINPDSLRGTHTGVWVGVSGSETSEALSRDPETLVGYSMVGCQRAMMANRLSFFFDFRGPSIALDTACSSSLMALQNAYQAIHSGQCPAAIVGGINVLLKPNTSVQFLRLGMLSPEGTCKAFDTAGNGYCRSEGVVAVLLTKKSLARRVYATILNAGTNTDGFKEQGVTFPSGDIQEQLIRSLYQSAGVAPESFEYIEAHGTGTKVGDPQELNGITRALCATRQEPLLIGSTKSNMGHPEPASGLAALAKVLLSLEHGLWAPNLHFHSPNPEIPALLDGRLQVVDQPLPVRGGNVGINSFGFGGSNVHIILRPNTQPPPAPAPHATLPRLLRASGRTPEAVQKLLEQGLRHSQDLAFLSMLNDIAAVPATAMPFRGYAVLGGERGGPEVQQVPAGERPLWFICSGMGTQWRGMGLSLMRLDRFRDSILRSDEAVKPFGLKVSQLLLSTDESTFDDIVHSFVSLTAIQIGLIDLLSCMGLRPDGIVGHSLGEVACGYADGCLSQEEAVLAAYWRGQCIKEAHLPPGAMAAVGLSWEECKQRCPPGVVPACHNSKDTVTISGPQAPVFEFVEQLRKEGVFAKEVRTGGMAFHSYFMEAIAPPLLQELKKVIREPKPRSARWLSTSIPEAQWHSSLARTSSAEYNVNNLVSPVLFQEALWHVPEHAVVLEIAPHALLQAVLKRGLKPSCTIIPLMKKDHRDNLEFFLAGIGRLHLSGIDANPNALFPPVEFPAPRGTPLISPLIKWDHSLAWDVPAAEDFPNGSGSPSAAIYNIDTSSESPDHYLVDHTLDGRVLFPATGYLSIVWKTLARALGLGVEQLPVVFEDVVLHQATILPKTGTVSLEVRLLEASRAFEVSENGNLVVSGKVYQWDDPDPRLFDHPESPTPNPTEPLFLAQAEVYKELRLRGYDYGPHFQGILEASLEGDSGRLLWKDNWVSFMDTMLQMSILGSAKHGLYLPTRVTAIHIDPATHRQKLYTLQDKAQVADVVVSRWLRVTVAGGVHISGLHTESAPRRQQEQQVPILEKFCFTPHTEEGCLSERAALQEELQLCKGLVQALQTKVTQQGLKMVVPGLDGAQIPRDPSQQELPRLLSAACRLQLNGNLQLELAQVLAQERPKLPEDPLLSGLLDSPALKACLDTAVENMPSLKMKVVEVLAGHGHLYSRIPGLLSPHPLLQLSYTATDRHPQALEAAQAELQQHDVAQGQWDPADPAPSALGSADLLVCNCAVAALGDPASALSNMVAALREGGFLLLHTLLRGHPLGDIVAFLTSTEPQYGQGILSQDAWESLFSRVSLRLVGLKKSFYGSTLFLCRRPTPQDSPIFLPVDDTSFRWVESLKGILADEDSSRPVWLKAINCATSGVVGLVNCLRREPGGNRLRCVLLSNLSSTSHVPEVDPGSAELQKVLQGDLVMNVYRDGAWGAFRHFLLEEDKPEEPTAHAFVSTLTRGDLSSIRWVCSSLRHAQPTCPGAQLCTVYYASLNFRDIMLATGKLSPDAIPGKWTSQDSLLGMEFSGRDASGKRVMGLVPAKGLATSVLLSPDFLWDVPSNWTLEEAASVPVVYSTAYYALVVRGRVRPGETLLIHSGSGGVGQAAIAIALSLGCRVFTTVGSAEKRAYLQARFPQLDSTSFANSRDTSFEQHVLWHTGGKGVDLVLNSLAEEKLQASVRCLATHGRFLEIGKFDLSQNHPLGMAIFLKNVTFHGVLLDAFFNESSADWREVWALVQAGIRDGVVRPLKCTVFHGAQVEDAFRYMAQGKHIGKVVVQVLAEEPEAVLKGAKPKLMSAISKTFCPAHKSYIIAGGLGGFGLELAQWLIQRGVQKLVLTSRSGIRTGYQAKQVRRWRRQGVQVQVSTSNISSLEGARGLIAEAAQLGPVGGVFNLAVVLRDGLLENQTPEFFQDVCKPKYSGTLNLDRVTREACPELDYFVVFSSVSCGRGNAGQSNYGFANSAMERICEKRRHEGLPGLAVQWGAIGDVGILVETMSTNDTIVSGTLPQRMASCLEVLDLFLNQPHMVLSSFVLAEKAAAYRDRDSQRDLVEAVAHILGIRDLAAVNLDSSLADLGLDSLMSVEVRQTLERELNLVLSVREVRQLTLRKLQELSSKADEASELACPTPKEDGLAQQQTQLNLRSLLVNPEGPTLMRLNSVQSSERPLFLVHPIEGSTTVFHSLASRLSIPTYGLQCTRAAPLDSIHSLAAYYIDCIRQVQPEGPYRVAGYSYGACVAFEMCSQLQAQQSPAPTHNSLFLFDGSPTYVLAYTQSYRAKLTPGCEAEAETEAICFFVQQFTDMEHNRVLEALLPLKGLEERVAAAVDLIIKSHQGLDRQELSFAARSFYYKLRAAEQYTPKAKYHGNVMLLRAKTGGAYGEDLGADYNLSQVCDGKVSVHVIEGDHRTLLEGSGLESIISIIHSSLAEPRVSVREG

[5] = target: T4, 3-oxoacyl-[acyl-carrier-protein] synthase 1 (Escherichia coli K-12) (UniProt P0A953); assay: Inhibitory activity against FabB from Escherichia coli ANSI at 100 uM
T4 sequence (whole entry): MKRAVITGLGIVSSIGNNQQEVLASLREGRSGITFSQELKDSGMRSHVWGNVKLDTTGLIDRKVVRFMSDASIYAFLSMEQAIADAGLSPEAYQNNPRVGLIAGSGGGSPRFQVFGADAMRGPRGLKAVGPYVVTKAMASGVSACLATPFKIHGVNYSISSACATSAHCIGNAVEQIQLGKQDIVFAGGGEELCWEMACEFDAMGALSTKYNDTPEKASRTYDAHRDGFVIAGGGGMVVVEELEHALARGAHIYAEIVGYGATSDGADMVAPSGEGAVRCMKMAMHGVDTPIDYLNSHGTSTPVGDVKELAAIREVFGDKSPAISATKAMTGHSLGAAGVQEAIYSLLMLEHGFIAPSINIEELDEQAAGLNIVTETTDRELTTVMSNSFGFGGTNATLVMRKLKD

Fatty acid synthase [6] = target: T3, Fatty acid synthase; assay: Inhibitory activity against human FAS1
Target sequence in this assay (P49327 whole entry): as the sequence (P49327 whole entry, looked up) above

[7] = target: T5, 3-oxoacyl-[acyl-carrier-protein] synthase 1 (Escherichia coli K-12, UniProt P0A953); assay: Inhibitory activity against FabB from Escherichia coli ANSI
T5 sequence (P0A953 whole entry): T4 sequence (whole entry)

| Compound | inhibition [1] | MIC (Escherichia coli) | inhibition [2] | MIC [3] | inhibition (Fatty acid synthase [4]) | inhibition [5] | IC50 (Fatty acid synthase [6]) | IC50 [7] |
| --- | --- | --- | --- | --- | --- | --- | --- | --- |
| CCC(C)C[C@@]1(C)SC(O)=C(C)C1=O (some centres not stated) | inactive | > 200 µM | inactive | > 1000 µM | inactive | inactive | – | – |
| C=CC(C)C[C@@]1(C)SC(O)=C(C)C1=O (some centres not stated) | inactive | > 200 µM | inactive | > 1000 µM | inactive | inactive | – | – |
| C=C/C(C)=C/C1(C)SC(O)=C(C)C1=O (racemic) [RAC-THIOLACTOMYCIN] | – | 12 µM (≈ 2.52 µg/mL) | – | 125 µM (≈ 26.3 µg/mL) | – | – | 143 µM | 20 µM |
| CC/C(C)=C/[C@@]1(C)SC(O)=C(C)C1=O | inactive | > 200 µM | inactive | > 1000 µM | inactive | inactive | – | – |
